This note sets out measurements from patent publication US9777005B2 (Takeda Pharmaceutical Company Limited, priority 2012, dated 2017).

This experiment deals with T1, human M1 receptor (hCHRM1) (Homo sapiens, UniProt P11229).
T1 construct: expressed in transfected cells; host or cells: CHO-K1
T1 sequence (P11229 1-460): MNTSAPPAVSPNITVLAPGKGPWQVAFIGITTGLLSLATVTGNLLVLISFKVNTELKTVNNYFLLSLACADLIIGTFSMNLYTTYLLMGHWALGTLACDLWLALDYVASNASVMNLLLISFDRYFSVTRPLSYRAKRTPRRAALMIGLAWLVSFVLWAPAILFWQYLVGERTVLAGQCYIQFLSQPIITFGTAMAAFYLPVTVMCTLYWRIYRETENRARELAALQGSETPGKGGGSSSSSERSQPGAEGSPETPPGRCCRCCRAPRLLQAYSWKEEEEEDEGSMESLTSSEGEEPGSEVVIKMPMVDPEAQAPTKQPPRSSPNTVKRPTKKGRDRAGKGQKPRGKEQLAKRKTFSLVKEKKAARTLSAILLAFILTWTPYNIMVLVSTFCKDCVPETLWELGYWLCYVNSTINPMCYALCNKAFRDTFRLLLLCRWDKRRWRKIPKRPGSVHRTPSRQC
Kind of experiment: Measurement of M1 receptor positive allosteric modulator (M1PAM) activity, calcium fluorescence (FLIPRtetra) in CHO-K1 cells in the presence of acetylcholine at EC20. In kind it is cell-based. The note with it: in the presence of acetylcholine at EC20 (final 0.6 nM), CHO-K1 cells expressing hCHRM1; for EC50: inflection point of M1PAM activity, read-out: IP value; for activity (%) at 10 μM: test compound 10 μM. Put shortly:
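PAM activity was measured as calcium flux by FLIPRtetra over 1 min after co-addition of compound and EC20 acetylcholine (final 0.6 nM) to Fluo-4-loaded hCHRM1 CHO-K1 cells. The response was scaled between DMSO (0%) and 1 μM acetylcholine (100%), and the inflection point of the concentration curve gives the IP value.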

As for `Cc1cc(-c2ccc(CN3Cc4ccnc(Oc5ccc(C#N)cc5F)c4C3=O)cc2)on1` [Example 373, 3-fluoro-4-((2-(4-(3-methyl-1,2-oxazol-5-yl)benzyl)-3-oxo-2,3-dihydro-1H-pyrrolo[3,4-c]pyridin-4-yl)oxy)benzonitrile], the EC50 came out at 45 nM and the “activity (%) at 10 μM” value amounted to 103%.
As for `Cn1ccc(-c2ccc(CN3Cc4ccnc(Oc5ccc(C#N)cc5F)c4C3=O)cc2)n1` [Example 374, 3-fluoro-4-((2-(4-(1-methyl-1H-pyrazol-3-yl)benzyl)-3-oxo-2,3-dihydro-1H-pyrrolo[3,4-c]pyridin-4-yl)oxy)benzonitrile], the EC50 amounted to 16 nM and the “activity (%) at 10 μM” value is 103%.
For `Cn1ccc(-c2ccc(CN3Cc4ccnc(Oc5c(F)cc(C#N)cc5F)c4C3=O)cc2)n1` [Example 375, 3,5-difluoro-4-((2-(4-(1-methyl-1H-pyrazol-3-yl)benzyl)-3-oxo-2,3-dihydro-1H-pyrrolo[3,4-c]pyridin-4-yl)oxy)benzonitrile] the same measures were 10 nM and 99%.
For `Cc1cc(-c2ccc(CN3Cc4ccnc(Oc5c(F)cc(C#N)cc5F)c4C3=O)cc2)ccn1` [Example 376, 3,5-difluoro-4-((2-(4-(2-methylpyridin-4-yl)benzyl)-3-oxo-2,3-dihydro-1H-pyrrolo[3,4-c]pyridin-4-yl)oxy)benzonitrile] the same measures were 6.9 nM and 106%.
For `Cn1cc(-c2ccc(CN3Cc4cccc(Oc5c(F)cc(C#N)cc5F)c4C3=O)nc2)cn1` [Example 377, 3,5-difluoro-4-((2-((5-(1-methyl-1H-pyrazol-4-yl)pyridin-2-yl)methyl)-3-oxo-2,3-dihydro-1H-isoindol-4-yl)oxy)benzonitrile] the same measures were 7.6 nM and 83%.
As to `Cn1cc(-c2ccc(CN3Cc4cccc(Oc5c(F)cc(C#N)cc5F)c4C3=O)cn2)cn1` [Example 378, 3,5-difluoro-4-((2-((6-(1-methyl-1H-pyrazol-4-yl)pyridin-3-yl)methyl)-3-oxo-2,3-dihydro-1H-isoindol-4-yl)oxy)benzonitrile], the EC50 was determined as 33 nM and the “activity (%) at 10 μM” value is 98%.
For `Cc1cc(-c2ccc(CN3Cc4ccnc(Oc5ccc(C(F)F)cc5F)c4C3=O)cc2)ccn1` [Example 379, 4-(4-(difluoromethyl)-2-fluorophenoxy)-2-(4-(2-methylpyridin-4-yl)benzyl)-1,2-dihydro-3H-pyrrolo[3,4-c]pyridin-3-one] the same measures were 14 nM and 90%.
For `Cn1ccc(-c2ccc(CN3Cc4ccnc(Oc5ccc(C(F)F)cc5F)c4C3=O)cc2)n1` [Example 380, 4-(4-(difluoromethyl)-2-fluorophenoxy)-2-(4-(1-methyl-1H-pyrazol-3-yl)benzyl)-1,2-dihydro-3H-pyrrolo[3,4-c]pyridin-3-one] the same measures were 22 nM and 102%.
For `Cc1nn(C)cc1-c1ccc(CN2Cc3ccnc(Oc4ccc(C(F)F)cc4F)c3C2=O)c(F)c1` [Example 381, 4-(4-(difluoromethyl)-2-fluorophenoxy)-2-(4-(1,3-dimethyl-1H-pyrazol-4-yl)-2-fluorobenzyl)-1,2-dihydro-3H-pyrrolo[3,4-c]pyridin-3-one] the same measures were 7.8 nM and 103%.
In the case of `CC(C)n1cc(-c2ccc(CN3Cc4cccc(Oc5c(F)cc(C#N)cc5F)c4C3=O)cn2)cn1` [Example 382, 3,5-difluoro-4-((2-((6-(1-isopropyl-1H-pyrazol-4-yl)pyridin-3-yl)methyl)-3-oxo-2,3-dihydro-1H-isoindol-4-yl)oxy)benzonitrile], the EC50 is 70 nM and the “activity (%) at 10 μM” value was 99%.
For `Cc1cc(-c2ccc(CN3Cc4ccnc(Oc5ccc(Cl)cc5F)c4C3=O)cc2)ccn1` [Example 383, 4-(4-chloro-2-fluorophenoxy)-2-(4-(2-methylpyridin-4-yl)benzyl)-1,2-dihydro-3H-pyrrolo[3,4-c]pyridin-3-one] the same measures were 48 nM and 86%.
For `CC(C)n1cc(-c2ccc(CN3Cc4ccnc(Oc5c(F)cc(C#N)cc5F)c4C3=O)cc2)cn1` [Example 384, 3,5-difluoro-4-((2-(4-(1-isopropyl-1H-pyrazol-4-yl)benzyl)-3-oxo-2,3-dihydro-1H-pyrrolo[3,4-c]pyridin-4-yl)oxy)benzonitrile] the same measures were 7.8 nM and 91%.
For `Cc1nn(C)cc1-c1ccc(CN2Cc3ccnc(Oc4c(F)cc(C#N)cc4F)c3C2=O)cc1` [Example 385, 4-((2-(4-(1,3-dimethyl-1H-pyrazol-4-yl)benzyl)-3-oxo-2,3-dihydro-1H-pyrrolo[3,4-c]pyridin-4-yl)oxy)-3,5-difluorobenzonitrile] the same measures were 2.6 nM and 85%.
As for `Cn1cc(-c2ccc(CN3Cc4ccnc(Oc5c(F)cc(C#N)cc5F)c4C3=O)c(F)c2)cn1` [Example 386, 3,5-difluoro-4-((2-(2-fluoro-4-(1-methyl-1H-pyrazol-4-yl)benzyl)-3-oxo-2,3-dihydro-1H-pyrrolo[3,4-c]pyridin-4-yl)oxy)benzonitrile], the EC50 was determined as 1.4 nM and the “activity (%) at 10 μM” value came out at 86%.
Take `Cn1ccc(-c2ccc(CN3Cc4ccnc(Oc5c(F)cc(C#N)cc5F)c4C3=O)c(F)c2)n1` [Example 387, 3,5-difluoro-4-((2-(2-fluoro-4-(1-methyl-1H-pyrazol-3-yl)benzyl)-3-oxo-2,3-dihydro-1H-pyrrolo[3,4-c]pyridin-4-yl)oxy)benzonitrile]: the EC50 worked out at 7.1 nM and the “activity (%) at 10 μM” value worked out at 102%.
For `Cn1cc(-c2ccc(CN3Cc4ccnc(Oc5ccc(Cl)cc5F)c4C3=O)cc2)cn1` [Example 388, 4-(4-chloro-2-fluorophenoxy)-2-(4-(1-methyl-1H-pyrazol-4-yl)benzyl)-1,2-dihydro-3H-pyrrolo[3,4-c]pyridin-3-one] the same measures were 30 nM and 102%.
Take `Cn1cc(-c2ccc(CN3Cc4cccc(Oc5ccc(C(O)C(F)(F)F)cc5F)c4C3=O)nc2)cn1` (centres unmarked) [Example 389, 7-(2-fluoro-4-(2,2,2-trifluoro-1-hydroxyethyl)phenoxy)-2-((5-(1-methyl-1H-pyrazol-4-yl)pyridin-2-yl)methyl)isoindolin-1-one]: the EC50 amounted to 32 nM and the “activity (%) at 10 μM” value turned out to be 93%.
For `Cn1cc(-c2ccc(CN3Cc4cccc(Oc5ccc(C(O)C(F)(F)F)cc5F)c4C3=O)cn2)cn1` (centres unmarked) [Example 390, 7-(2-fluoro-4-(2,2,2-trifluoro-1-hydroxyethyl)phenoxy)-2-((6-(1-methyl-1H-pyrazol-4-yl)pyridin-3-yl)methyl)isoindolin-1-one] the same measures were 71 nM and 90%.
For `Cn1cc(-c2ccc(CN3Cc4ccnc(Oc5ccc(C(F)F)cc5F)c4C3=O)cc2)cn1` [Example 391, 4-(4-(difluoromethyl)-2-fluorophenoxy)-2-(4-(1-methyl-1H-pyrazol-4-yl)benzyl)-1,2-dihydro-3H-pyrrolo[3,4-c]pyridin-3-one] the same measures were 10 nM and 100%.
